In patent US11077163B2, “Peptide for treating ocular diseases and composition for treating ocular diseases comprising same” (GemVax & KAEL CO., LTD., priority 2015, dated 2021):

Key:
Format in all cases: in vivo, Brown Norway rats
[1] = system: laser-induced choroidal neovascularization (CNV); test: CNV thickness by optical coherence tomography (OCT) in laser-induced CNV animal model; conditions: subcutaneous once a day
Source text: Brown Norway rats were anesthetized, and pupils of the eyes were dilated using 0.5% phenylephrine (pupillary dilatation). The target rats having the dilated pupils of the eyes were irradiated with a 577 nm laser (577 nm, diode, 10 μm, 0.05 seconds) 6 to 8 times per eye to cause neovascularization in the choroid. Upon laser irradiation, the eyes were covered with a cover glass, and the rupture of Bruch's membranes was confirmed from the fact that bubbles occurred during irradiation with lasers using a slit lamp delivery system. In a laser-induced CNV […] model, the rats were randomized to experimental groups in which the peptide pep1 prepared by the method disclosed in Example 1 was administered at three doses of 0.1, 1, and 10 nM, and the control (vehicle) in which pep1 was not administered, and a drug was subcutaneously administered to the rats once a day for a period of time starting from the day before 3 days of laser irradiation to 2 weeks after the laser irradiation. To compare the CNV activities between various groups, a Kruskal-Wallis test was used. […] The groups in which pep1 was administered and the control complied with the experimental groups disclosed in Example 2, and the thicknesses of all lesions in each of the groups were measured to check whether there was a difference in CNV thicknesses between the groups.

[2] = system: laser-induced choroidal neovascularization (CNV); test: Angiographic leakage in the choroid by fluorescein angiography (FAG) in laser-induced CNV animal model; conditions: subcutaneous once a day, FAG at 2 weeks after laser
Source text: Brown Norway rats were anesthetized, and pupils of the eyes were dilated using 0.5% phenylephrine (pupillary dilatation). The target rats having the dilated pupils of the eyes were irradiated with a 577 nm laser (577 nm, diode, 10 μm, 0.05 seconds) 6 to 8 times per eye to cause neovascularization in the choroid. Upon laser irradiation, the eyes were covered with a cover glass, and the rupture of Bruch's membranes was confirmed from the fact that bubbles occurred during irradiation with lasers using a slit lamp delivery system. In a laser-induced CNV […] model, the rats were randomized to experimental groups in which the peptide pep1 prepared by the method disclosed in Example 1 was administered at three doses of 0.1, 1, and 10 nM, and the control (vehicle) in which pep1 was not administered, and a drug was subcutaneously administered to the rats once a day for a period of time starting from the day before 3 days of laser irradiation to 2 weeks after the laser irradiation. To compare the CNV activities between various groups, a Kruskal-Wallis test was used. In this case, the comparison between two groups was performed using a Mann-Whitney U test. A p value was considered to be statistically significant when the p value was less than 0.05. After CNV was induced with lasers, the rats in the groups in which pep1 was administered and the rats in the control were anesthetized after the elapse of 2 weeks, and a contrast medium was intraperitoneally injected at a dose of 0.1 mL (10% fluorescein disodium salt). Levels of angiographic leakage in the choroid between the control and the groups in which pep1 was administered were compared using fluorescein angiography (FAG). The groups in which pep1 was administered and the control complied with the experimental groups disclosed in Example 2, and the leakage levels at all lesions in each of the groups were measured to check whether there was a difference in angiographic leakage in the choroid between the groups. […]

[3] = system: laser-induced choroidal neovascularization (CNV); test: CNV area by isolectin staining of retinal pigment epithelium-choroid-sclera tissues in laser-induced CNV animal model; conditions: subcutaneous once a day, isolectin-stained area at 2 weeks after laser
Source text: Brown Norway rats were anesthetized, and pupils of the eyes were dilated using 0.5% phenylephrine (pupillary dilatation). The target rats having the dilated pupils of the eyes were irradiated with a 577 nm laser (577 nm, diode, 10 μm, 0.05 seconds) 6 to 8 times per eye to cause neovascularization in the choroid. Upon laser irradiation, the eyes were covered with a cover glass, and the rupture of Bruch's membranes was confirmed from the fact that bubbles occurred during irradiation with lasers using a slit lamp delivery system. […] An area of tissues stained with isolectin specific to vascular endothelial cells was measured to determine CNV areas in the control and the groups in which pep1 was administered. The groups in which pep1 was administered and the control complied with the experimental groups disclosed in Example 2, and the thicknesses of all lesions in each of the groups were measured to check whether there was a difference in CNV areas between the groups.

EARPALLTSRLRFIPK (listed as Homo sapiens) [pep1, telomerase-derived peptide of 16 amino acids, location [611-626] on human telomerase]
CNV thickness compared to the control ([1]; all groups 0.1, 1 and 10 nM, from 3 days before to 2 weeks after laser irradiation, OCT at 2 weeks): statistically significantly reduced
CNV thickness compared to the control ([1]; group at 1 nM, OCT at 2 weeks after laser): most drastically reduced
angiographic leakage level compared to the control ([2]; all groups 0.1, 1 and 10 nM): reduced
ratio of lesions with Grade 2B (clinically severe leakage level) compared to the control ([2]; all groups 0.1, 1 and 10 nM): reduced
ratio of lesions with Grade 2B (clinically severe leakage level) compared to the control ([2]; groups at 1 and 10 nM): drastically reduced
CNV area compared to the control ([3]; all groups 0.1, 1 and 10 nM): statistically significantly reduced
CNV area compared to the control ([3]; group at 1 nM): most drastically reduced
